Results: paper PMC6155162, “Identification of mesothelioma-specific sialylated epitope recognized with monoclonal antibody SKM9-2 in a mucin-like membrane protein HEG1” (Scientific Reports, 2018)
Entries after “also recorded” stand apart in the source; their conditions may differ.

B1: recombinant HEG1: full-length recombinant HEG1 (1-1481) expressed in HEK293T (protein, UniProt Q9ULI3 1-1381, looked up)
chain: MASPRASRWPPPLLLLLLPLLLLPPAAPGTRDPPPSPARRALSLAPLAGAGLELQLERRPEREPPPTPPRERRGPATPGPSYRAPEPGAATQRGPSGRAPRGGSADAAWKHWPESNTEAHVENITFYQNQEDFSTVSSKEGVMVQTSGKSHAASDAPENLTLLAETADARGRSGSSSRTNFTILPVGYSLEIATALTSQSGNLASESLHLPSSSSEFDERIAAFQTKSGTASEMGTERAMGLSEEWTVHSQEATTSAWSPSFLPALEMGELTTPSRKRNSSGPDLSWLHFYRTAASSPLLDLSSSSESTEKLNNSTGLQSSSVSQTKTMHVATVFTDGGPRTLRSLTVSLGPVSKTEGFPKDSRIATTSSSVLLSPSAVESRRNSRVTGNPGDEEFIEPSTENEFGLTSLRWQNDSPTFGEHQLASSSEVQNGSPMSQTETVSRSVAPMRGGEITAHWLLTNSTTSADVTGSSASYPEGVNASVLTQFSDSTVQSGGSHTALGDRSYSESSSTSSSESLNSSAPRGERSIAGISYGQVRGTAIEQRTSSDHTDHTYLSSTFTKGERALLSITDNSSSSDIVESSTSYIKISNSSHSEYSSFFHAQTERSNISSYDGEYAQPSTESPVLHTSNLPSYTPTINMPNTSVVLDTDAEFVSDSSSSSSSSSSSSSSGPPLPLPSVSQSHHLFSSILPSTRASVHLLKSTSDASTPWSSSPSPLPVSLTTSTSAPLSVSQTTLPQSSSTPVLPRARETPVTSFQTSTMTSFMTMLHSSQTADLKSQSTPHQEKVITESKSPSLVSLPTESTKAVTTNSPLPPSLTESSTEQTLPATSTNLAQMSPTFTTTILKTSQPLMTTPGTLSSTASLVTGPIAVQTTAGKQLSLTHPEILVPQISTEGGISTERNRVIVDATTGLIPLTSVPTSAKEMTTKLGVTAEYSPASRSLGTSPSPQTTVVSTAEDLAPKSATFAVQSSTQSPTTVSSSASVNSCAVNPCLHNGECVADNTSRGYHCRCPPSWQGDDCSVDVNECLSNPCPSTAMCNNTQGSFICKCPVGYQLEKGICNLVRTFVTEFKLKRTFLNTTVEKHSDLQEVENEITKTLNMCFSALPSYIRSTVHASRESNAVVISLQTTFSLASNVTLFDLADRMQKCVNSCKSSAEVCQLLGSQRRIFRAGSLCKRKSPECDKDTSICTDLDGVALCQCKSGYFQFNKMDHSCRACEDGYRLENETCMSCPFGLGGLNCGNPYQLITVVIAAAGGGLLLILGIALIVTCCRKNKNDISKLIFKSGDFQMSPYAEYPKNPRSQEWGREAIEMHENGSTKNLLQMTDVYYSPTSVRNPELERNGLYPAYTGLPGSRHSCIFPGQYNPSFISDESRRRDYF
modifications: full-length FLAG tag
notes: full-length recombinant HEG1 (1-1481) expressed in HEK293T

How the values were obtained:
SKM9-2 [1] = assay: SPR analysis of binding between SKM9-2 and soluble His-tagged minimum epitope peptides (SKMepmin)
Protocol: Figure 5 SPR analysis of the binding kinetics between SKM9-2 and mutants of minimum epitope. A soluble His-tagged mutant of minimum epitope (SKMepmin) was secreted from transfected HEK293T and immobilized as a ligand on the Ni^2+-binding sensor chip NTA. The upper sensorgrams show the binding kinetics of analyte (5 µg/mL of SKM9-2) to SKMepmins. The control without any peptide is shown as “No peptide” and the negative control peptide cycle is shown as “Control peptide”. The glycan-digested SKMepmin3 that was treated with Neuraminidase A and O-Glycosidase was used as the negative control peptide. The dissociation constant in the lower bar graph was calculated using the manufacturer’s instructions. RU, response units; Signal sequence, the artificial signal sequence (MAPLLLLLLPLLLLPPAAP).
(§1) Figure 7 SPR analysis of bindings of lectin and SKM9-2 to glycosidase-treated SKMepmin3. Purified SKMepmin3 was incubated with α2-3 Neuraminidase S, Neuraminidase A, or Neuraminidase A + O-Glycosidase; and then was immobilized as a ligand on Ni^2+-binding sensor chip NTA. The analytes were used at a concentration of 5 µg/mL. (a) ABA, (b) Jacalin, (c) rACG, (d) SKM9-2. Glycosidase-digested sample was not tested in the experiment with rACG.
(§2) Cell lysate or SKMepmin3 was treated with α2-3 Neuraminidase S, α2-3, 6, 8, 9 Neuraminidase A, and O-Glycosidase (New England Biolabs Japan, Tokyo, Japan) in 50 mM sodium phosphate (pH 7.5) containing 1% Nonidet P-40, according to the manufacturer’s instructions. The cell lysate sample was resolved by 4–15% or 6% SDS-PAGE under reducing conditions and detected by western blotting using SKM9-2. The analysis of the SKMepmin3 sample was performed by SPR.
(§3) The binding of SKM9-2 or lectin to SKMepmin was measured by SPR analysis. SKMepmin was diluted with a running buffer (10 mM HEPES buffer (pH 8.1) containing 150 mM NaCl and 0.005% Tween-20), flowed on Ni^2+-binding sensor chip NTA (GE Healthcare), and affinity-bound through His-tag as a ligand on the sensor chip. Binding analysis of SKM9-2 was performed in a running buffer containing 50 µM EDTA. A non-treated flow cell was used as a reference cell. SKM9-2, anti-sialyl Lewis^X (CSLEX1, Becton, Dickinson and Company Japan, Tokyo, Japan), rACG (Wako Pure Chemical Industries), biotinylated ABA (J-Oil Mills, Inc., Tokyo, Japan), or biotinylated Jacalin (Vector Laboratories, Inc., Burlingame, CA, USA) (each 5 µg/mL) was injected as an analyte with the running buffer. As a regeneration buffer, 350 mM EDTA was used. The dissociation constant was calculated using the manufacturer’s instructions.

[2] = tested on: recombinant Agrocybe cylindracea lectin (rACG); assay: SPR lectin binding analysis of SKMepmin3: rACG; conditions: non-treated SKMepmin3, rACG 5 µg/mL
Protocol: as §1, §3

Jacalin = assay: SPR lectin binding analysis of glycosidase-treated SKMepmin3: Jacalin
Protocol: as §1, §2, §3

[3] = tested on: anti-sialyl Lewis^X (CSLEX1); assay: SPR analysis of binding of anti-sialyl LewisX to SKMepmin3; conditions: purified SKMepmin3 on sensor chip NTA, analyte 5 µg/mL
Protocol: as §3
Supplementary Fig. S2. SPR analysis of binding of anti-sialyl LewisX to SKMepmin3.
Purified SKMepmin3 was immobilized as a ligand on Ni2+-binding sensor chip NTA. The analytes
were used at the concentration of 5 µg/mL.

[4] = tested on: Agaricus bisporus agglutinin (ABA); assay: SPR lectin binding analysis of glycosidase-treated SKMepmin3: ABA; conditions: ABA 5 µg/mL
Protocol: as §1, §2, §3

SKM9-2 [5] = assay: Deglycosylation analysis: western blotting using SKM9-2 of neuraminidase-treated cell lysates; type: binding; conditions: full-length HEG1, lysates of ACC-MESO4 (native) or HEG1-transfected HEK293T, 6% SDS-PAGE
Description: Figure 8 SKM9-2 epitope produced from mesothelioma cells. (a) Chromatogram of SKMepmin3 separation using anion exchange column. SKMepmin3 produced from HEK293T (blue line) or ACC-MESO4 (pink line) was affinity-purified using SKM9-2-immobilized resins and separated by Mini Q 4.6/50 PE. A major peak of SKMepmin3 purified from HEK293T contained two disialyl T antigens (Fig. 6). (b) Western blotting for epitope-fused GPI-anchor protein (7.6231) treated with neuraminidases. Cell lysate of 7.6231-transfected ACC-MESO1 (top panel), ACC-MESO4 (middle panel), or HEK293T (lower panel) was treated with α2-3 Neuraminidase S or Neuraminidase A, resolved by 4–15% SDS-PAGE, and analyzed by western blotting using SKM9-2. (c) Western blotting for full-length HEG1 treated with neuraminidases. Cell lysates of ACC-MESO4 (upper panel) and HEG1-transfected HEK293T (lower panel) were treated with α2-3 Neuraminidase S or Neuraminidase A and analyzed by 6% SDS-PAGE and western blotting using SKM9-2. (d) Schematic of SKM9-2 epitope. Full-length blots are presented in Supplementary Fig. S10.
Monolayer cells were solubilized with 20 mM Tris buffer (pH 8.0) containing 1% SDS, 1 mM phenylmethylsulfonyl fluoride, 125 mU/mL Benzonase Nuclease (Merck Millipore Co., Tokyo, Japan) (25 µL/cm^2 culture surface area). The lysate (10 µL/lane) was resolved by SDS-PAGE under reducing conditions using 6% polyacrylamide gels or 4–15% precast gels (Bio-Rad Laboratories Inc., Hercules, CA, USA). Then it was transferred to a polyvinylidene difluoride membrane (Immobilon-P; Merck Millipore Co.) by semi-dry blotting in a buffer containing 25 mM Tris, 192 mM glycine, 0.1% SDS, and 20% methanol. The membrane was blocked with 5% non-fat milk in 20 mM Tris-buffered saline (pH 7.2) containing 0.1% Tween 20 and reacted with 1 µg/mL of mAb SKM9-2 or anti-FLAG (Anti-DYKDDDDK tag mAb; 1E6, Wako Pure Chemical Industries, Osaka, Japan). After washing, it was treated with horseradish peroxidase-conjugated goat anti-mouse IgG (Jackson ImmunoResearch, West Grove, PA, USA), and developed with Amersham ECL select (GE Healthcare, Buckinghamshire, UK). Although glycan in non-fat milk often interferes the glycan-dependent binding of an antibody, the SKM9-2 binding was not affected by the blocking using non-fat milk, in comparison with 5% bovine serum albumin (Supplementary Fig. S6).
as §2

Molecule	Kd (SKM9-2 [1]; His-tagged SKMepmin secreted from transfected HEK293T immobilized on Ni2+-binding sensor chip NTA, analyte 5 µg/mL SKM9-2, running buffer 10 mM HEPES pH 8.1, 150 mM NaCl, 0.005% Tween-20, 50 µM EDTA, read-out: KD (M), dissociation constant) [M]	persistent binding of SKM9-2 (SKM9-2 [1]; SKMepmin3 desialylated with Neuraminidase A, SKM9-2 5 µg/mL)	SKM9-2 binding (SKM9-2 [1]; SKMepmin3 treated with α2–3 Neuraminidase S, SKM9-2 5 µg/mL)	association rate between SKM9-2 and epitope peptide (in words) (SKM9-2 [1]; analyte 5 µg/mL SKM9-2, change caused by the substitution)	interaction between SKM9-2 and SKMepmin3 (SKM9-2 [1]; complete digest of glycan using O-Glycosidase (with Neuraminidase A), SKM9-2 5 µg/mL)	rACG binding [2]	Jacalin binding (Jacalin; SKMepmin3 desialylated with Neuraminidase A, Jacalin 5 µg/mL)	Jacalin binding (Jacalin; deglycosylated SKMepmin3 (Neuraminidase A + O-Glycosidase), Jacalin 5 µg/mL)	Jacalin binding (Jacalin; non-treated SKMepmin3, Jacalin 5 µg/mL)	anti-sialyl Lewis^X antibody binding [3]	ABA binding ([4]; SKMepmin3 deglycosylated with O-Glycosidase and Neuraminidase A)	ABA binding ([4]; SKMepmin3 desialylated with Neuraminidase A)	ABA binding ([4]; non-treated SKMepmin3 as ligand)	SKM9-2 binding (western blot) (SKM9-2 [5]; Neuraminidase A)	SKM9-2 binding (western blot) (SKM9-2 [5]; α2–3 Neuraminidase S)
MAPLLLLLLPLLLLPPAAPGGSKAPSLVSLPAGGDYKDDDDKHHHHHHHH [SKMepmin3, minimum glycosylation peptide 893-…-903 -FLAG-Hisx8 with two disialyl T at Ser893 and Ser900]	2.82e-09	lost	weakened	increased	eliminated	interacted	recognized	not	did not bind	did not bind; also recorded: not bound	lost	enhanced	bound		
B1														lost	weakened
